# Values quoted from earlier work as cited in US7642235B2, “Macrocyclic peptides active against the hepatitis C virus” (Boehringer Ingelheim International GmbH, priority 2003, dated 2010).
# Test system: hepatitis C virus
# Details: two day clinical trial; Nature (2003) 426, p.186-189
smiles,measurement,value
COc1ccc2c(O[C@@H]3C[C@H]4C(=O)N[C@]5(C(=O)O)C[C@H]5/C=C\CCCCC[C@H](NC(=O)OC5CCCC5)C(=O)N4C3)cc(-c3csc(NC(C)C)n3)nc2c1 [BILN 2061],viral loads in patients infected with the hepatitis C virus,effective in rapidly reducing viral loads
